Test results from PubChem BioAssay AID1996.
≈ marks a conversion by molar mass, not a printed value.

settings: buffer; pH 7.4; 200.0 µM

Row | solubility kinetic [µg/mL] | Structure (SMILES)
1 | 19.9 (≈ 68.8 µM) | CCCOc1ccc(CNC(=O)Cc2cccs2)cc1
2 | 1.8 (≈ 6.09 µM) | Cc1ccc(NS(=O)(=O)Cc2ccccc2)cc1Cl
3 | 4.7 (≈ 13.8 µM) | NC(=O)c1ccsc1NC(=O)COC(=O)c1cccnc1Cl
4 | 37.9 (≈ 144 µM) | Cc1cccc(OC(C)C(=O)Nc2nccs2)c1 (stereo not given)
5 | 21.1 (≈ 57.8 µM) | O=C(COC(=O)CCC(=O)c1ccc(F)cc1)Nc1ccc(Cl)cn1
6 | > 45.3 | COc1cc([N+](=O)[O-])ccc1NC(=O)NCc1ccccn1
7 | > 45 | C=CCNC(=O)CSCc1ccc(Br)cc1
8 | > 33.8 | COn1c(-c2ccccc2)nc2ncccc21
9 | > 51.2 | CCOC(=O)Cc1cc(=O)n2[nH]c(C)c(-c3ccccc3OC)c2n1
10 | 1.7 (≈ 6.36 µM) | COc1ccc2occ(C(=O)c3ccc(N)cc3)c2c1
11 | 16.2 (≈ 49.5 µM) | COc1ccc(C(=O)CC(=O)C(=O)Nc2ccccc2OC)cc1
12 | > 30.8 | CC(=O)NC(Cc1ccccc1)C(C)=O (stereo not given)
13 | > 42 | CCC(CCC(=O)Nc1cccc([N+](=O)[O-])c1)C(=O)O (stereo not given)
14 | > 50.7 | NC(=O)c1cc[n+](Cc2ccc([N+](=O)[O-])cc2)cc1.[Br-]
15 | > 50.3 | CCCN(Cc1cc2cc(C)ccc2[nH]c1=O)C(=O)c1ccccn1
16 | > 61.9 | CC(C)[C@H](NC(=O)c1ccccc1F)C(=O)OCCN1C(=O)c2ccccc2C1=O
17 | 51.7 (≈ 148 µM) | COc1ccc(N2C(=O)C(CN3CCCCC3)C2c2ccccc2)cc1 (stereo not given)
18 | > 48.1 | CCCOc1ccc(C(=O)NCC(C)(C)N2CCOCC2)cc1

Row | solubility kinetic [µg/mL] | Structure (SMILES)
19 | 2.5 (≈ 7.83 µM) | COc1ccc(C(=O)NCCCSc2ccccc2)cc1F
20 | > 41.2 | Cc1ccc2nc(C)c3c(c2c1)N(c1ccccc1)CC3
21 | 42.2 (≈ 141 µM) | CCC(CC)C(=O)c1c[nH]c(C(=O)NCc2cccnc2)c1
22 | 16.6 (≈ 51.5 µM) | Cc1ccc(-n2cnc(N)c2C(=O)c2cccc([N+](=O)[O-])c2)cc1
23 | > 50.1 | O=C(O)c1cc(-c2cccs2)nc2ccc(Br)cc12
24 | > 47 | CCN1C(=O)C(O)(CC(=O)c2c(C)coc2C)c2ccccc21 (stereo not given)
25 | > 51.3 | O=C(O)CN1C(=O)c2ccc(Oc3ccc([N+](=O)[O-])cc3)cc2C1=O
26 | > 45 | COc1c(Cl)ccc(Cl)c1C(=O)NCc1ccco1
27 | 20.8 (≈ 79 µM) | CC(=O)c1c(C)[nH]c(C(=O)Nc2nccs2)c1C
28 | 4.6 (≈ 15.6 µM) | CC(=O)n1cc(Nc2ccc([N+](=O)[O-])cc2)c2ccccc21
29 | 50.1 (≈ 147 µM) | O=C(NCCCNC(=O)c1ccc(Cl)cc1Cl)c1ccco1
30 | > 39.4 | COc1ccc(Cl)cc1C(=O)Nc1ccncc1
31 | > 46.3 | O=C(NCCc1ccccc1)c1cccc(N2CCCC2=O)c1
32 | 0.7 (≈ 2.35 µM) | Cc1ccc(-c2csc(NC(=O)c3ccco3)n2)cc1C
33 | 31 (≈ 118 µM) | CC1(C)Cc2ccccc2C(C(=O)c2ccccc2)=N1
34 | > 47.8 | COc1ccc(CN2CC(C(=O)NCCC(C)C)CC2=O)cc1 (stereo not given)
35 | 46.5 (≈ 122 µM) | O=C(COC(=O)Cc1c(F)cccc1Cl)NCc1ccc2c(c1)OCO2

Second part, the molecule before the results:

Row | Structure (SMILES) | solubility kinetic [µg/mL]
36 | FC(F)(F)c1ccccc1N1CC1c1ccncc1 (stereo not given) | 31 (≈ 117 µM)
37 | Cc1ccc(C2C(C#N)=C(N)Oc3cc(C)oc(=O)c32)o1 (stereo not given) | > 42.6
38 | Cc1ccc(NC(=O)CSc2nc(N)cc(=O)[nH]2)cc1S(=O)(=O)N1CCCCC1 | 46.6 (≈ 107 µM)
39 | COC(=O)c1sccc1NC(=O)CC1NCCNC1=O (stereo not given) | 42.1 (≈ 142 µM)
40 | Cc1ccc2c(c1)CCCN2C(=O)c1cc(C)c(C)s1 | 3.9 (≈ 13.7 µM)
41 | O=C(COC(=O)CCN1C(=O)C2CC=CCC2C1=O)Nc1ccc([N+](=O)[O-])cc1 (stereo not given) | > 60.2
42 | C#Cc1ccc(CN2CCN(CCCc3ccccc3)C(CCO)C2)cc1 (stereo not given) | 36.9 (≈ 102 µM)
43 | C=CC[n+]1ccc(/C=C2\C=Cc3cc(C)ccc3N2CC)c2ccccc21.[Br-] | > 53
44 | O=C(OCC(=O)N1CCOCC1)c1ccc(N2CCOCC2)c([N+](=O)[O-])c1 | 54.6 (≈ 144 µM)
45 | CC(C)(C)SCCNS(=O)(=O)c1ccc(C#N)cc1 | 18.1 (≈ 60.7 µM)
46 | O=C(O)C(Sc1ccncn1)c1ccccc1 (stereo not given) | 26.4 (≈ 107 µM)
47 | CCc1nc(N2CCN(C(C)=O)CC2)c2c3c(sc2n1)CCCC3 | > 51.7
48 | O=[N+]([O-])c1cc(C(F)(F)F)ccc1NCC1CCCO1 (stereo not given) | 0.6 (≈ 2.07 µM)
49 | CCN1CCc2c(OCC(=O)N3CCCCC3)cccc2C1=O | > 47.5
50 | Cc1csc(NC(=O)CSC2=NCCS2)n1 | 40.5 (≈ 148 µM)
51 | OCC1OC(n2cnc3c(NCCc4ccccc4)ncnc32)C(O)C1O (stereo not given) | > 55.7
52 | CCc1ccc2nc(N)sc2c1 | > 26.7
53 | CCCC(=O)Nc1ccc(OCC(O)CNC(C)C)c(C(C)=O)c1.Cl (stereo not given) | > 55.9
54 | O=S(=O)(c1ccc(NCCCO)nc1)N1CCOCC1 | > 45.2
55 | COc1ccc(-c2nc(N)ncc2-c2ccc(OC)c(OC)c2)c(O)c1 | 1 (≈ 2.83 µM)
56 | CC(C)CN1CCN(CC#Cc2ccccc2)CC1CCO (stereo not given) | 43.6 (≈ 145 µM)
57 | O=C(Nc1ccccc1)Nc1cccc(-c2cn3cccnc3n2)c1 | 1 (≈ 3.04 µM)
58 | CC(c1ccccc1)n1c(CCCO)nc2ccccc21 (stereo not given) | > 42.1
59 | Cc1nn(CC(=O)NCCCN2CCCC2=O)c(C)c1[N+](=O)[O-] | > 48.5
60 | Cc1ccc(S(=O)(=O)NCCN2CCNC2=O)cc1 | 38.5 (≈ 136 µM)
